Activity calls are given as the source filed them. The calls are words filed in the database; no cut-off is given here.
How the values were obtained:
[1] = test system: A549; test: Cytotoxicity against human A549 cells by MTT assay; assay type: functional, cell-based
[2] = test system: MCF7; test: Ratio of oleanolic acid IC50 to compound IC50 for human MCF7 cells; assay type: functional
[3] = test system: MCF7; test: Cytotoxicity against human MCF7 cells by MTT assay; assay type: functional, cell-based
[4] = test system: BGC-823; test: Cytotoxicity against human BGC823 cells by MTT assay; assay type: functional, cell-based
[5] = test system: PC-3; test: Cytotoxicity against human PC3 cells by MTT assay; assay type: functional, cell-based
[6] = test system: HepG2; test: Cytotoxicity against human HepG2 cells; assay type: functional, cell-based
[7] = test system: PC-3; test: Ratio of oleanolic acid IC50 to compound IC50 for human PC3 cells; assay type: functional
[8] = test system: PC-3; test: Ratio of adriamycin IC50 to compound IC50 for human PC3 cells; assay type: functional

Structure (SMILES)	IC50 [1] [µM]	Ratio IC50 [2]	IC50 [3] [µM]	IC50 [4] [µM]	IC50 [5] [µM]	IC50 [6] [µM]	inhibition [3]	Ratio IC50 [7]	Ratio IC50 [8]
CC1(C)CC[C@]2(C(=O)O)CC[C@]3(C)C(=CC[C@@H]4[C@@]5(C)CC[C@H](OC(=O)CCN6CCCC6)C(C)(C)[C@@H]5CC[C@]43C)[C@@H]2C1	6.12	17	1.98	27.2	5.45	–	–	–	–
CC1(C)CC[C@]2(C(=O)OCC(=O)O)CC[C@]3(C)C(=CC[C@@H]4[C@@]5(C)CC[C@H](OC(=O)C[C@H](O)C(=O)O)C(C)(C)[C@@H]5CC[C@]43C)[C@@H]2C1	19.3	–	35.1	9.36	8.07	–	–	–	–
CC1(C)CC[C@]2(C(=O)OCC(=O)O)CC[C@]3(C)C(=CC[C@@H]4[C@@]5(C)CC[C@H](OC(=O)CCC(=O)O)C(C)(C)[C@@H]5CC[C@]43C)[C@@H]2C1	11.9	–	805	13.4	7.72	–	–	–	–
COc1cccc2c1C(=O)c1c(O)c3c(c(O)c1C2=O)C[C@@](O)(C(=O)CO)C[C@@H]3O[C@H]1C[C@H](N)[C@H](O)[C@H](C)O1 [DOXORUBICIN]	–	–	1.65	–	–	–	–	–	–
CC1(C)CC[C@]2(C(=O)O)CC[C@]3(C)C(=CC[C@@H]4[C@@]5(C)CC[C@H](OC(=O)Cn6ccnc6)C(C)(C)[C@@H]5CC[C@]43C)[C@@H]2C1	16.9	–	894	16.3	57.5	–	–	–	–
COC(=O)[C@]12CCC(C)(C)C[C@@H]1C1=CC[C@@H]3[C@@]4(C)CC[C@H](N)C(C)(C)[C@@H]4CC[C@@]3(C)[C@]1(C)CC2	–	–	–	–	–	4	–	–	–
CC1(C)CC[C@]2(C(=O)O)CC[C@]3(C)C(=CC[C@@H]4[C@@]5(C)CC[C@H](OC(=O)CN6CCOCC6)C(C)(C)[C@@H]5CC[C@]43C)[C@@H]2C1	8.27	–	14.9	24.5	6.29	–	–	–	–
CC1(C)CC[C@]2(C(=O)O)CC[C@]3(C)C(=CC[C@@H]4[C@@]5(C)CC[C@H](OC(=O)CCn6ccnc6)C(C)(C)[C@@H]5CC[C@]43C)[C@@H]2C1	0.22	–	–	76.3	50.5	–	inactive	–	–
CC1(C)CC[C@]2(C(=O)O)CC[C@]3(C)C(=CC[C@@H]4[C@@]5(C)CC[C@H](O)C(C)(C)[C@@H]5CC[C@]43C)[C@@H]2C1 [OLEANOLIC_ACID]	0.39	–	35.4	2.59	6.51	–	–	–	–
CC1(C)CC[C@]2(C(=O)O)CC[C@]3(C)C(=CC[C@@H]4[C@@]5(C)CC[C@H](OC(=O)CCC(=O)O)C(C)(C)[C@@H]5CC[C@]43C)[C@@H]2C1 [OLEANOLIC ACID 3-O-SUCCINATE]	6.57	–	60.7	5.59	7.11	–	–	–	–
CC1(C)CC[C@]2(C(=O)O)CC[C@]3(C)C(=CC[C@@H]4[C@@]5(C)CC[C@H](OC(=O)CCC(=O)NCCS(=O)(=O)O)C(C)(C)[C@@H]5CC[C@]43C)[C@@H]2C1	1.31	–	5.19	7.32	0.83	–	–	17	–
CC1(C)CC[C@]2(C(=O)OCC(=O)O)CC[C@]3(C)C(=CC[C@@H]4[C@@]5(C)CC[C@H](OC(=O)CCC(=O)NCCS(=O)(=O)O)C(C)(C)[C@@H]5CC[C@]43C)[C@@H]2C1	268	–	51.7	84.5	10.4	–	–	–	–
CC1(C)CC[C@]2(C(=O)O)CC[C@]3(C)C(=CC[C@@H]4[C@@]5(C)CC[C@H](OC(=O)C[C@H](O)C(=O)O)C(C)(C)[C@@H]5CC[C@]43C)[C@@H]2C1	0.71	–	16.2	4.18	0.39	–	–	17	1.7
CC1(C)CC[C@]2(C(=O)O)CC[C@]3(C)C(=CC[C@@H]4[C@@]5(C)CC[C@H](OC(=O)CCN6CCOCC6)C(C)(C)[C@@H]5CC[C@]43C)[C@@H]2C1	728	–	718	81.9	6.38	–	–	–	–
CC1(C)CC[C@]2(C(=O)O)CC[C@]3(C)C(=CC[C@@H]4[C@@]5(C)CC[C@H](OC(=O)CN6CCCC6)C(C)(C)[C@@H]5CC[C@]43C)[C@@H]2C1	8.53	–	12.9	87.2	28.3	–	–	–	–

Reference: ChEMBL document CHEMBL2346627, “Synthesis and cytotoxicity evaluation of oleanolic acid derivatives” (Bioorg Med Chem Lett, 2013)
